The target of this test is T1, recombinant C. elegans kinesin-II (heterotrimeric kinesin-2) (Caenorhabditis elegans, UniProt Q19633+Q965T6).
T1 sequence (Q19633 1-782): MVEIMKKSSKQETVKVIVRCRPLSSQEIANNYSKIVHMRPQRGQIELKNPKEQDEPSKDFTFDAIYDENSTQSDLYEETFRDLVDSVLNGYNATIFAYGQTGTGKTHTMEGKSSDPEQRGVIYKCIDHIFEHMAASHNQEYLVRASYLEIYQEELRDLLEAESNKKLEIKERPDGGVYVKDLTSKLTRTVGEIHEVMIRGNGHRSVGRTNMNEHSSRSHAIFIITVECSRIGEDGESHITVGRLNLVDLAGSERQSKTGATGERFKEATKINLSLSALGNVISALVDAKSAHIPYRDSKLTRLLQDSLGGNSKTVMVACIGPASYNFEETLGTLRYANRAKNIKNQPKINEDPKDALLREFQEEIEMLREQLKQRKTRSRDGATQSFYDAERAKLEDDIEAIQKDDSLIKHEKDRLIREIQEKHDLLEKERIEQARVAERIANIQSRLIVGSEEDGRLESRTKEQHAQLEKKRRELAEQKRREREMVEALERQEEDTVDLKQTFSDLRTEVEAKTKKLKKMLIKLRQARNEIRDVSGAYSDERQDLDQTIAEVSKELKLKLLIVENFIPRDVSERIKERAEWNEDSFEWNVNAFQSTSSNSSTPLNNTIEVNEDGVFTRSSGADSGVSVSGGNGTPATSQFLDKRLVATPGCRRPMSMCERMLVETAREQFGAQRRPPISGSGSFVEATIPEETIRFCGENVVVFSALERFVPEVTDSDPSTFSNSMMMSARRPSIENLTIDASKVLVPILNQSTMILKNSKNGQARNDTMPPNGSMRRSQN
T1 sequence (Q965T6 1-646): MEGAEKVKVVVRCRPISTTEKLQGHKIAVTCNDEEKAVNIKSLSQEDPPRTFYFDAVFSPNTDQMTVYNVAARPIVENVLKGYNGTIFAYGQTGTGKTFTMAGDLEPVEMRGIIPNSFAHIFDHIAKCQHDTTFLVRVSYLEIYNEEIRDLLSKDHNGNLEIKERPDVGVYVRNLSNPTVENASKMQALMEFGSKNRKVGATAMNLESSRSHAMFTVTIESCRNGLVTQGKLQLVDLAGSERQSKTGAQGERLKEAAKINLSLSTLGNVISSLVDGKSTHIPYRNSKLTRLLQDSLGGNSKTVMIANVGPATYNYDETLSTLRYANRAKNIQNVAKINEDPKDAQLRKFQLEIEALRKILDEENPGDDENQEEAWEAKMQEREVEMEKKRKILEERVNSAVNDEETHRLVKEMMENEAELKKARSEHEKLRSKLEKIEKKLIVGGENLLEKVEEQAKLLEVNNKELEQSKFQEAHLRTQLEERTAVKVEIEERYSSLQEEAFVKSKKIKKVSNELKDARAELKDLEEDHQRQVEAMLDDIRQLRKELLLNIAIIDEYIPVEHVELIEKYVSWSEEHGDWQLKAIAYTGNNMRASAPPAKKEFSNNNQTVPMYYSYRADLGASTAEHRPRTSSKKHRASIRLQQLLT
T1 sequence (G5EEE6 1-713 partner): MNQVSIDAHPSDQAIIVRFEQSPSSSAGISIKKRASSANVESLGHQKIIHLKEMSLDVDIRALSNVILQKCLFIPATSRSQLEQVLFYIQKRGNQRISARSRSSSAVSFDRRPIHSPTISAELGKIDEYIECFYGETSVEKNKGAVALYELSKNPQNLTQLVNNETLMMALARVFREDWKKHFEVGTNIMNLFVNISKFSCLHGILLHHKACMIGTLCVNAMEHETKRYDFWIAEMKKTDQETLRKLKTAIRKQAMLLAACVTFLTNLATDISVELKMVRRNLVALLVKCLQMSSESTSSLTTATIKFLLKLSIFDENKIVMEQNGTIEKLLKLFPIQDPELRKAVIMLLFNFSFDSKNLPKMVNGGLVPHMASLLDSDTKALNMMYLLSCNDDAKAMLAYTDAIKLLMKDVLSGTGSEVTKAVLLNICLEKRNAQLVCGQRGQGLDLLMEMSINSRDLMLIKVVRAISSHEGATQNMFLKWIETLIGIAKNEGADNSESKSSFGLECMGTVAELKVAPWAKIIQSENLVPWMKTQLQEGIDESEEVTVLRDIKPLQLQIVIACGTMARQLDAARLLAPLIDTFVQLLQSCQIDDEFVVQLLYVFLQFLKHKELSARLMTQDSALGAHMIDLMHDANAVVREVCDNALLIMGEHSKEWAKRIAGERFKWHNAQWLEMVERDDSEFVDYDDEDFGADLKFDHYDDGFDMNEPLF
The experiment in a line: microtubule gliding velocity assay. The test is classed as biochemical. To be noted: read-out: Recombinant C. elegans kinesin-II; Mg-ATP; microtubules; 21°C.

As for `Nc1ncnc2c1ncn2[C@@H]1O[C@H](COP(=O)(O)OP(=O)(O)OP(=O)(O)O)[C@@H](O)[C@H]1O` [Mg-ATP], the Km is 280 ± 50 µM.

For the origin of these results see paper PMC2064394 (The Journal of Cell Biology, 2006).
